Measurements as given in US20230241142A1, “USE OF A POLAR EXTRACT OF SKELETONEMA IN PHOTODYNAMIC THERAPY” (IFREMER, priority 2020, published 2023).

Experiments:
Assay type in all cases: cell-based
[1] = test system: normal human epidermal keratinocytes (NHEK); assay: anti-inflammatory effect: IL-6 secreted by Poly(I:C)-stimulated keratinocytes (ELISA); conditions: NHEK stimulated with Poly(I:C) 1 µg/mL + Bafilomycin 100 nM
Method: (§1) The anti-inflammatory properties of S. marinoï polar algae extract were evaluated on normal human epidermal keratinocytes (NHEK) These NHEK human epidermal keratinocytes were seeded in K-SFM medium supplemented with 0.25 ng/mL of EGF (Epidermal Growth Factor), 25 µg/mL of pituitary extract and 25 µg/mL of Gentamycin in 96-well plates to then be incubated at 37° C. under an atmosphere containing 5% CO2. After at least one day of culturing, the NHEK cells are pre-incubated for 24 hours in the presence or absence of different concentrations of the S. marinoï polar extract. As a positive control of anti-inflammatory activity, NHEK cells were also pre-incubated in the presence of bafilomycin (100 nM). After this pre-incubation, the treatments were renewed and the NHEK cells are then incubated for 24 hours in the presence of poly (I:C) for inducing inflammation. A control condition without inflammation inducer (unstimulated control) was performed in parallel. After incubation, the culture supernatant was collected to determine the level of keratinocyte inflammation by ELISA by measuring the amounts of IL-6 secreted.

[2] = test system: normal human epidermal keratinocytes (NHEK); assay: cell viability (WST-8) of Poly(I:C)-stimulated keratinocytes; conditions: NHEK stimulated with Poly(I:C) 1 µg/mL + Bafilomycin 100 nM
Method: The anti-inflammatory properties of S. marinoï polar algae extract were evaluated on normal human epidermal keratinocytes (NHEK)
as §1, with “These” for “The anti-inflammatory properties of S. marinoï polar algae extract were evaluated on normal human epidermal keratinocytes (NHEK) These”, “parallel.” for “parallel. After incubation, the culture supernatant was collected to determine the level of keratinocyte inflammation by ELISA by measuring the amounts of IL-6 secreted.”

[3] = test system: human sebocytes of the SEBO662AR line; assay: anti-lipogenic effect: total lipids (BODIPY probe) in stimulated sebocytes; conditions: cells stimulated with lipogenic mixture containing androgens + Cerulenin 10 µM
Method: The effect of S. marinoï polar algae extract on the overproduction of lipids was studied on human sebocytes of the SEBO662AR line (BIOALTERNATIVES line) stimulated by lipogenic and androgenic factors.
SEBO662AR human sebocytes were first cultured at 37° C. in the presence of 5% CO2 and antibiotics in a dedicated culture medium. After at least one day of culturing, lipogenesis is induced in the SEBO662AR cells by their incubation in the presence of lipogenic and androgenic factors. The cells are then incubated in the presence or in the absence of 3 distinct concentrations of the polar extract. As a positive control of lipogenesis inhibitory activity, the SEBO662AR cells are incubated in the presence of cerulenin. At the end of the incubation period, the total lipids are fluorescently labelled, and the inhibition of lipogenesis is determined for each condition.

Compound | IL6 [1] [pg/mL] | Cell viability (WST-8) [2] | Lipids (BODIPY® probe) Fluorescence intensity /Number of nuclei [3] | Stimulation % [3] [%]
CO/C1=C\C(C)=C\[C@@H](C)[C@@H](O)[C@@H](C)C/C(C)=C/C=C/[C@H](OC)[C@@H]([C@@H](C)[C@@H](O)[C@H](C)[C@@]2(O)C[C@@H](O)[C@H](C)[C@@H](C(C)C)O2)OC1=O [Bafilomycin, bafilomycin] | 13 | 100 |  | 
C/C=C/C/C=C/CCC(=O)[C@H]1O[C@H]1C(N)=O [Cerulenin, cerulenin] |  |  | 188 853^∗∗ | 63
